Experimental data reported in patent US7429564B2, “Oral insulin therapy” (Emisphere Technologies, Inc., priority 2002, dated 2008).

Assay: Delivery agent plasma concentrations in humans after oral delivery agent capsules
Assay type: in vivo, human
Procedure: Delivery agents 1-3 were investigated for their ability to penetrate the GI mucosa. The plasma concentration of each delivery agent was measured in human subjects after oral administration of delivery agent loaded capsules as a measure of each delivery agent's penetration efficiency.
Blood sampling for plasma delivery agent concentration determination (2 mL in sodium heparin tube) were drawn 15 minutes before dosing, and at 5, 10, 15, 30, and 45 minutes and 1, 1.5, 2, 3, 4, 6, 8, and 12 hours post-dose (14 samples per treatment) for delivery agent measurements in all treatment groups.
Two 18-gauge IV lines were situated prior to dosing; one for blood sampling, and the other for potential infusion of 20% glucose for subjects in groups 2 and 3. The subjects in group 1 only had one cannula inserted. The blood samples were centrifuged at 3000 rpm for a period of fifteen minutes at a temperature from about 2° C. to 8° C., within one hour of sample collection. Using a plastic pipette and without disturbing the red cell layer, the plasma from the collection tube was pipetted in duplicate for each analysis, blood glucose, Human Insulin, C-peptide, delivery agent into pre-labeled polypropylene tubes. The samples were stored at −70° C. until analysis.
The indicated doses were ingested by healthy human volunteers and the plasma concentrations of the delivery agents were monitored over time and the area under the curve (AUC) calculated. […] Similarly, oral administration of 800 mg of delivery agent number 3 produced more than a 23 fold greater penetration of the GI mucosa in humans than did oral administration of 750 mg of delivery agent 2 having n equal to 9 alkyl.

O=C(O)CCCNC(=O)c1ccc(Cl)cc1O [4-CNAB, 4-[(4-chloro, 2-hydroxybenzoyl)amino]butanoic acid]
Fold greater penetration of the GI mucosa vs delivery agent 1 (humans, 800 mg vs 750 mg oral): approximately 13.5 fold
Fold greater penetration of the GI mucosa vs delivery agent 2 (humans, 800 mg vs 750 mg oral): > 23 fold
AUC (plasma, oral capsules, 800 mg, healthy human volunteers): 47500 ng·h/mL
